In patent publication US20230135635A1, “INHIBITORS OF ULK1/2 AND METHODS OF USING SAME” (SALK INSTITUTE FOR BIOLOGICAL STUDIES, priority 2020, published 2023):

Target: T1, recombinant human ULK1 protein (1-649) (Homo sapiens, UniProt O75385)
T1 construct: recombinant human ULK1 protein (1-649, SignalChem #U01-11G); purchased SignalChem U01-11G
T1 sequence (O75385 1-649): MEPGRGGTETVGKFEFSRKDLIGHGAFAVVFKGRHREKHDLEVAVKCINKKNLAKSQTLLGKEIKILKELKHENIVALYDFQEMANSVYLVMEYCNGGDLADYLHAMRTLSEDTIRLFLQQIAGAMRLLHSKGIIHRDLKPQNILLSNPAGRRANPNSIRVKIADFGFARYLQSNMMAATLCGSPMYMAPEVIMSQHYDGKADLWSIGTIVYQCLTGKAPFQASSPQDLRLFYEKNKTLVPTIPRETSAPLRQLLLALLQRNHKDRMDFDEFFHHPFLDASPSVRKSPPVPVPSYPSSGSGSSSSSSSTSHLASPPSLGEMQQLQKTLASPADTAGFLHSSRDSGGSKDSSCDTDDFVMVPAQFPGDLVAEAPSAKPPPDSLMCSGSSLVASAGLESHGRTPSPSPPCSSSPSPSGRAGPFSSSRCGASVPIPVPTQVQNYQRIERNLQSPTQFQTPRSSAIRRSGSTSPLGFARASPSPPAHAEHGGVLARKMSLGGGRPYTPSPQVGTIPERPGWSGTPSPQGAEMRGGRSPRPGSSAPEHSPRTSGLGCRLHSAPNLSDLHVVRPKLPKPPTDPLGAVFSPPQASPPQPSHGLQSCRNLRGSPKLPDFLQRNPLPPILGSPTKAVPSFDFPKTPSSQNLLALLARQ
Test: ULK1 inhibition assay (ADP Glo)
Format: biochemical
Conditions: Table 1; 25 uM ATP, MBP substrate, one hour
Method: Illustrative compounds of Formula I and related analogs are shown in Table 1 (along with their respective IC50 values for ULK1 inhibition assays). For ADP Glo assay, IC50s are represented nM, with A representing IC50<1 nM, B representing 10 nM>IC50>1 nM, and C representing IC50>10 nM. NT indicates the compound was not tested. ULK1 inhibition assays were performed in a 5 uL reaction volume containing 2 ug/mL recombinant human ULK1 protein (1-649, SignalChem #U01-11G) and 80 ug/mL myelin basic protein (MBP, Sigma-Aldrich #M1891) in the presence of 25 uM ATP (Sigma-Aldrich A7699). ULK 1 inhibition was assessed after one hour. Compounds were tested in triplicate in a 16-dose IC50 mode with 3-fold serial dilution and a starting dose of 30 uM. Staurosporine, a non-selective protein kinase inhibitor, was used in the assay as a positive control.
According to another embodiment, the present disclosure provides methods of producing the above-defined compounds. The compounds may be synthesized using any suitable techniques. Advantageously, these compounds are conveniently synthesized from readily available starting materials. Synthetic chemistry transformations and methodologies useful in synthesizing the compounds described herein are known in the art and include, for example, those described in R. Larock, Comprehensive Organic Transformations (1989); T. W. Greene and P. G. M. Wuts, Protective Groups in Organic Synthesis, 2d. Ed. (1991); L. Fieser and M. Fieser, Fieser and Fieser's Reagents for Organic Synthesis (1994); and L. Paquette, ed., Encyclopedia of Reagents for Organic Synthesis (1995).). In general, synthesis and measurements of ULK1 inhibitory activity of the compounds described herein was performed using method analogous to those previously described in PCT International Application No. PCT/US2015/046777 which is hereby incorporated by reference in its entirety.

Row | IC50 [nM] | Structure (SMILES)
1 | < 1 | Cn1cc(CN2CCc3cc(Nc4ncc(C(F)(F)F)c(NC5CC5)n4)ccc3C2)cn1 [Compound A62]
2 | < 1 | Cn1nccc1CN1CCc2cc(Nc3ncc(C(F)(F)F)c(NC4CC4)n3)ccc2C1 [Compound A63]
3 | < 1 | CN1CCc2cc(Nc3ncc(C(N)=O)c(NC4CC4)n3)ccc2C1 [Compound A64]
4 | < 1 | CN1CCc2cc(Nc3ncc(Br)c(NC4CC4)n3)ccc2C1 [Compound A65]
5 | < 1 | O=C(CCO)N1CCc2cc(Nc3ncc(C(F)(F)F)c(NC4CC4)n3)ccc2C1 [Compound A68]
6 | < 1 | CC(=O)CN1CCc2cc(Nc3ncc(C(F)(F)F)c(NC4CC4)n3)ccc2C1 [Compound A69]
7 | < 1 | CC(O)CN1CCc2cc(Nc3ncc(C(F)(F)F)c(NC4CC4)n3)ccc2C1 (stereo not drawn) [Compound A70]
8 | < 1 | CN(C)c1ccc(CN2CCc3cc(Nc4ncc(C(F)(F)F)c(NC5CC5)n4)ccc3C2)cc1 [Compound A71]
9 | > 10 | CN1CCc2cc(Nc3nccc(NC4CC4)n3)ccc2C1 [Compound A72]
10 | < 1 | CN1CCC(N2CCc3cc(Nc4ncc(C(F)(F)F)c(NC5CC5)n4)ccc3C2)CC1 [Compound A73]
11 | < 1 | CN(C)C(=O)CN1CCc2cc(Nc3ncc(C(F)(F)F)c(NC4CC4)n3)ccc2C1 [Compound A74]
12 | < 1 | FC(F)(F)c1cnc(Nc2ccc3c(c2)CCN(Cc2ccncn2)C3)nc1NC1CC1 [Compound A75]
13 | 1 to 10 | NS(=O)(=O)N1CCc2ccc(Nc3ncc(C(F)(F)F)c(NC4CC4)n3)cc2C1 [Compound A76]
14 | < 1 | Oc1ccc(CN2CCc3cc(Nc4ncc(C(F)(F)F)c(NC5CC5)n4)ccc3C2)cc1 [Compound A77]
15 | < 1 | FC(F)(F)c1cnc(Nc2ccc3c(c2)CN(CCS)CC3)nc1NC1CC1 [Compound A78]
16 | 1 to 10 | FC(F)(F)c1cnc(Nc2ccc3c(c2)CN(CC2OCCO2)CC3)nc1NC1CC1 [Compound A79]
17 | 1 to 10 | NOCC(=O)N1CCc2cc(Nc3ncc(C(F)(F)F)c(NC4CC4)n3)ccc2C1 [Compound A80]
18 | < 1 | CSCCN1CCc2ccc(Nc3ncc(C(F)(F)F)c(NC4CC4)n3)cc2C1 [Compound A81]
19 | < 1 | FC(F)(F)c1cnc(Nc2ccc3c(c2)CN(Cc2ccncc2)CC3)nc1NC1CC1 [Compound A82]

Row | IC50 [nM] | Structure (SMILES)
20 | 1 to 10 | NCC(=O)N1CCc2ccc(Nc3ncc(C(F)(F)F)c(NC4CC4)n3)cc2C1 [Compound A83]
21 | > 10 | O=C(O)c1cnc(Nc2ccc3c(c2)CCNC3)nc1NC1CC1 [Compound A85]
22 | < 1 | COCCN1CCc2ccc(Nc3ncc(C(F)(F)F)c(NC4CC4)n3)cc2C1 [Compound A86]
23 | 1 to 10 | COC(=O)CC(=O)N1CCc2ccc(Nc3ncc(C(F)(F)F)c(NC4CC4)n3)cc2C1 [Compound A87]
24 | 1 to 10 | O=C(O)CCN1CCc2ccc(Nc3ncc(C(F)(F)F)c(NC4CC4)n3)cc2C1 [Compound A88]
25 | 1 to 10 | FC(F)(F)c1cnc(Nc2ccc3c(c2)CN(Cc2ccco2)CC3)nc1NC1CC1 [Compound A89]
26 | 1 to 10 | O=C(C1CCN1)N1CCc2cc(Nc3ncc(C(F)(F)F)c(NC4CC4)n3)ccc2C1 (stereo not drawn) [Compound A90]
27 | 1 to 10 | CS(=O)(=O)CCN1CCc2cc(Nc3ncc(C(F)(F)F)c(NC4CC4)n3)ccc2C1 [Compound A91]
28 | 1 to 10 | FC(F)(F)c1cnc(Nc2ccc3c(c2)CCN(Cc2ccoc2)C3)nc1NC1CC1 [Compound A92]
29 | 1 to 10 | FC(F)(F)c1cnc(Nc2ccc3c(c2)CCN(Cc2ccc[nH]2)C3)nc1NC1CC1 [Compound A93]
30 | 1 to 10 | FC(F)(F)c1cnc(Nc2ccc3c(c2)CN(Cc2cc[nH]c2)CC3)nc1NC1CC1 [Compound A94]
31 | > 10 | FC(F)(F)c1cnc(Nc2ccc3c(c2)CN(Cc2ccccc2)CC3)nc1NC1CC1 [Compound A95]
32 | > 10 | N[C@@H](CO)C(=O)N1CCc2ccc(Nc3ncc(C(F)(F)F)c(NC4CC4)n3)cc2C1 [Compound A96]
33 | 1 to 10 | FC(F)(F)c1cnc(Nc2ccc3c(c2)CN(CCN2CCOCC2)CC3)nc1NC1CC1 [Compound A97]
34 | 1 to 10 | CC(=O)N1CCc2ccc(Nc3ncc(C(F)(F)F)c(NC4CC4)n3)cc2C1 [Compound A98]
35 | 1 to 10 | CN1CCN(C(=O)N2CCc3ccc(Nc4ncc(C(F)(F)F)c(NC5CC5)n4)cc3C2)CC1 [Compound A99]
36 | < 1 | O=C(CN1CCc2ccc(Nc3ncc(C(F)(F)F)c(NC4CC4)n3)cc2C1)N1CCOCC1 [Compound A100]
37 | < 1 | FC(F)(F)c1cnc(Nc2ccc3c(c2)CN(Cc2ccoc2)CC3)nc1NC1CC1 [Compound A101]
38 | 1 to 10 | FC(F)(F)c1cnc(Nc2ccc3c(c2)CN(C2COC2)CC3)nc1NC1CC1 [Compound A102]

Row | IC50 [nM] | Structure (SMILES)
39 | 1 to 10 | NCCN1CCc2ccc(Nc3ncc(C(F)(F)F)c(NC4CC4)n3)cc2C1 [Compound A103]
40 | 1 to 10 | CS(=O)(=O)N1CCc2ccc(Nc3ncc(C(F)(F)F)c(NC4CC4)n3)cc2C1 [Compound A104]
41 | 1 to 10 | FC(F)(F)c1cnc(Nc2ccc3c(c2)CN(Cc2c[nH]cn2)CC3)nc1NC1CC1 [Compound A105]
42 | 1 to 10 | OCCN1CCc2ccc(Nc3ncc(C(F)(F)F)c(NC4CC4)n3)cc2C1 [Compound A106]
43 | > 10 | FC(F)(F)c1cnc(Nc2ccc3c(c2)CN(CC2CCNC2)CC3)nc1NC1CC1 (stereo not drawn) [Compound A107]
44 | < 1 | FC(F)(F)c1cnc(Nc2ccc3c(c2)CN(Cc2cncnc2)CC3)nc1NC1CC1 [Compound A108]
45 | < 1 | FC(F)(F)c1cnc(Nc2ccc3c(c2)CN(Cc2ccncn2)CC3)nc1NC1CC1 [Compound A109]
46 | < 1 | FC(F)(F)c1cnc(Nc2ccc3c(c2)CN(C2CNC2)CC3)nc1NC1CC1 [Compound A110]
47 | 1 to 10 | Cn1cnc(CN2CCc3ccc(Nc4ncc(C(F)(F)F)c(NC5CC5)n4)cc3C2)c1 [Compound A111]
48 | > 10 | Nc1ccc(CN2CCc3cc(Nc4ncc(C(F)(F)F)c(NC5CC5)n4)ccc3C2)cc1 [Compound A112]
49 | < 1 | COc1ccc(CN2CCc3cc(Nc4ncc(C(F)(F)F)c(NC5CC5)n4)ccc3C2)cc1 [Compound A113]
50 | < 1 | CN1CCC(N2CCc3cc(Nc4ncc(C(F)(F)F)c(NC5CC5)n4)ccc3C2)C1 (stereo not drawn) [Compound A114]
51 | 1 to 10 | O=C(CN1CCOCC1)N1CCc2cc(Nc3ncc(C(F)(F)F)c(NC4CC4)n3)ccc2C1 [Compound A115]
52 | 1 to 10 | O=S(=O)(C1CC1)N1CCc2cc(Nc3ncc(C(F)(F)F)c(NC4CC4)n3)ccc2C1 [Compound A116]
53 | > 10 | CNC(=O)c1ccccc1Oc1nc(Nc2ccc3c(c2)CCN(CCOC)C3)ncc1C(F)(F)F [Compound A121, 2-((2-((2-(2-Methoxyethyl)-1,2,3,4-tetrahydroisoquinolin-6-yl)amino)-5-(trifluoromethyl)pyrimidin-4-yl)oxy)-N-methylbenzamide]
54 | > 10 | COCCN1CCc2cc(Nc3ncc(C(F)(F)F)c(N4CCc5ccccc54)n3)ccc2C1 [Compound A123, N-(4-(Indolin-1-yl)-5-(trifluoromethyl)pyrimidin-2-yl)-2-(2-methoxyethyl)-1,2,3,4-tetra-hydroisoquinolin-6-amine]
55 | > 10 | CNC(=O)c1ccccc1Oc1nc(Nc2ccc3c(c2)CCN(CCOC)C3)ncc1Cl [Compound A124, 2-((5-chloro-2-((2-(2-methoxyethyl)-1,2,3,4-tetrahydroisoquinolin-6-yl)amino)pyrimidin-4-yl)oxy)-N-methylbenzamide]
56 | > 10 | CNC(=O)c1ccccc1Oc1nc(Nc2ccc3c(c2)CCN(CCOC)C3)ncc1Br [Compound A125, 2-((5-Bromo-2-((2-(2-methoxyethyl)-1,2,3,4-tetrahydroisoquinolin-6-yl)amino)pyrimidin-4-yl)oxy)-N-methylbenzamide]
57 | > 10 | CNC(=O)c1ccccc1Nc1nc(Nc2ccc3c(c2)CCNC3)ncc1Br [Compound A126, 2-[5-Bromo-2-(1,2,3,4-tetrahydro-isoquinolin-6-ylamino)-pyrimidin-4-ylamino]-N-methyl-benzamide]
